Experimental data as given in patent US12479847B2 (DANA-FARBER CANCER INSTITUTE, INC., priority 2019, dated 2025).
Where two headings read alike, the source gives them in different places.

Key:
Assay in all cases: KINOMEscan (ScanMAX) kinase profiling
Assay type in all cases: binding
panel of 468 kinases [1] = target: T1, panel of 468 kinases (Homo sapiens, UniProt O00444); settings: PLK4; 1 μM; read-out: % control
T1 construct: purchased KINOMEscan (ScanMAX) service
T1 sequence (O00444 1-970): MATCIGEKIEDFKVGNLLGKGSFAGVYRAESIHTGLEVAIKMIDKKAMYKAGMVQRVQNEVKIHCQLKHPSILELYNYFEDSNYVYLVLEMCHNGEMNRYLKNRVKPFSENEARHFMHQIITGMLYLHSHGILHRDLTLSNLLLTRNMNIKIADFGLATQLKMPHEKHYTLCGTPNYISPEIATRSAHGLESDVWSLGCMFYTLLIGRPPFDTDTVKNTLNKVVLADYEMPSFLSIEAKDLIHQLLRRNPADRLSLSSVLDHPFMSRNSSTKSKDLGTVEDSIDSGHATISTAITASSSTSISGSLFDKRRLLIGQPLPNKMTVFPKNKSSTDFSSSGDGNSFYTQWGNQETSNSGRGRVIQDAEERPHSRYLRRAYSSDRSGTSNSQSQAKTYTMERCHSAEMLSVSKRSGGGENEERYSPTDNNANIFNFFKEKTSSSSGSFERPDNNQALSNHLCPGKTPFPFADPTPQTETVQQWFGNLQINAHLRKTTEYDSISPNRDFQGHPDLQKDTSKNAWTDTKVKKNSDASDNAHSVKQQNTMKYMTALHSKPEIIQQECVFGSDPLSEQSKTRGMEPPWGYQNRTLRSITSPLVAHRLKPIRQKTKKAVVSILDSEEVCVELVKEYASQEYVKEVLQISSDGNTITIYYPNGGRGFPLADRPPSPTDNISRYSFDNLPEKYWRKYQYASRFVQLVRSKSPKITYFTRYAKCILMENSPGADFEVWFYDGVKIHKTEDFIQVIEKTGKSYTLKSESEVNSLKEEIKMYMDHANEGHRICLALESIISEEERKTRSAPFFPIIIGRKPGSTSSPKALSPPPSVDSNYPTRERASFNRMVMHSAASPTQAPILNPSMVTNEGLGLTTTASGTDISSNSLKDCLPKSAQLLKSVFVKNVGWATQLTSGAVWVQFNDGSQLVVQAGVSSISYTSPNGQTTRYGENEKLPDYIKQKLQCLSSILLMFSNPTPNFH

panel of 468 kinases [2] = target: T2, panel of 468 kinases (Homo sapiens, UniProt O15146); settings: MUSK; 1 μM; read-out: % control
T2 construct: purchased KINOMEscan (ScanMAX) service
T2 sequence (O15146 24-869): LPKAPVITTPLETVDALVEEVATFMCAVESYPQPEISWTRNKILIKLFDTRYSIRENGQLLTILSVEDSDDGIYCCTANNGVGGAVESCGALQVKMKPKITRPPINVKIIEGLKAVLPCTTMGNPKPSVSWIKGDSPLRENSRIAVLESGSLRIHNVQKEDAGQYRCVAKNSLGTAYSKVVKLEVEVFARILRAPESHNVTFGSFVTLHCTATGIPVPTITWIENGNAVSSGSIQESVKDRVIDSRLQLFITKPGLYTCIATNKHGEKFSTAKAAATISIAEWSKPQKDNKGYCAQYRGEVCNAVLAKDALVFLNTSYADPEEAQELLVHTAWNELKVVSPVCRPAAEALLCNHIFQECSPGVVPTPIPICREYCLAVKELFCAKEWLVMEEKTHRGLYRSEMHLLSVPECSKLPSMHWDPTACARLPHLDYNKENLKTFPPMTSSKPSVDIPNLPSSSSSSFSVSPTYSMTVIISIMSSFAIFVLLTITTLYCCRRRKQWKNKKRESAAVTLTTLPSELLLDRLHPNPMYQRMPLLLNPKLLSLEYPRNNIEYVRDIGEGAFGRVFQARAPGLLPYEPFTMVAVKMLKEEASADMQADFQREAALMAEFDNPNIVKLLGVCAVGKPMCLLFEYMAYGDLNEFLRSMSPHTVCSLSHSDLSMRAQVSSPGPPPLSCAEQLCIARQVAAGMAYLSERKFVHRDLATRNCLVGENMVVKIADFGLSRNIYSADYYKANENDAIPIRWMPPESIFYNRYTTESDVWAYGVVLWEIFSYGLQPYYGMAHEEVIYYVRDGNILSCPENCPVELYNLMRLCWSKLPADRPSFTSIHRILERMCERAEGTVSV

panel of 468 kinases [3] = target: T3, panel of 468 kinases (Homo sapiens, UniProt P11362); settings: FGFR1; 1 μM; read-out: % control
T3 construct: purchased KINOMEscan (ScanMAX) service

panel of 468 kinases [4] = target: T4, panel of 468 kinases (Homo sapiens, UniProt P14616); settings: INSRR; 1 μM; read-out: % control
T4 construct: purchased KINOMEscan (ScanMAX) service

panel of 468 kinases [5] = target: T5, panel of 468 kinases (Homo sapiens, UniProt P32298); settings: GRK4; 1 μM; read-out: % control
T5 construct: purchased KINOMEscan (ScanMAX) service

panel of 468 kinases [6] = target: T6, panel of 468 kinases (Homo sapiens, UniProt P35968); settings: VEGFR2; 1 μM; read-out: % control
T6 construct: purchased KINOMEscan (ScanMAX) service

panel of 468 kinases [7] = target: T7, panel of 468 kinases (Homo sapiens, UniProt Q08345); settings: DDR1; 1 μM; read-out: % control
T7 construct: purchased KINOMEscan (ScanMAX) service

panel of 468 kinases [8] = target: T8, panel of 468 kinases (Homo sapiens, UniProt Q15349); settings: 1 μM, read-out: % control
T8 construct: purchased KINOMEscan (ScanMAX) service

panel of 468 kinases [9] = target: T9, panel of 468 kinases (Homo sapiens, UniProt Q86UE8); settings: TLK2; 1 μM; read-out: % control
T9 construct: purchased KINOMEscan (ScanMAX) service

panel of 468 kinases [10] = target: T10, panel of 468 kinases (Homo sapiens, UniProt Q9P0L2); settings: MARK1; 1 μM; read-out: % control
T10 construct: purchased KINOMEscan (ScanMAX) service

panel of 468 kinases [11] = target: T11, panel of 468 kinases (Homo sapiens, UniProt Q9P289); settings: MST4; 1 μM; read-out: % control
T11 construct: purchased KINOMEscan (ScanMAX) service

panel of 468 kinases [12] = target: T12, panel of 468 kinases (Mycobacterium tuberculosis, UniProt P9WI81); settings: read-out: % control
T12 construct: purchased KINOMEscan (ScanMAX) service
T12 sequence (P9WI81 whole entry): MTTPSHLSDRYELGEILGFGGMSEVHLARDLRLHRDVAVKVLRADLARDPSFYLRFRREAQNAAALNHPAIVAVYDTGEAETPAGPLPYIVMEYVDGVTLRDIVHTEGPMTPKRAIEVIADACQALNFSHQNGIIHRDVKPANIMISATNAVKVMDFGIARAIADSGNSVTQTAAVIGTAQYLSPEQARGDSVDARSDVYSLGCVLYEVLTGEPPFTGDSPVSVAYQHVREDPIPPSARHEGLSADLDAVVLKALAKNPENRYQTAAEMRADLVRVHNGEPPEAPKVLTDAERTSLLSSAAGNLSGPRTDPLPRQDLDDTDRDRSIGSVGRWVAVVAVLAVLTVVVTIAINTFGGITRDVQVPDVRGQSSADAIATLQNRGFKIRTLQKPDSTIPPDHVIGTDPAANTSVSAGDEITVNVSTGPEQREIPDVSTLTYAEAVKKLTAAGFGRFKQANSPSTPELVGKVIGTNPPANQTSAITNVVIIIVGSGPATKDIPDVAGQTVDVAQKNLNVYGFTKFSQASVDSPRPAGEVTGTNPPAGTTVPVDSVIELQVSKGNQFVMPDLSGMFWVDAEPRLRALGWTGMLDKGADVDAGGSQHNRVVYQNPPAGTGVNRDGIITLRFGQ

T10 sequence (Q9P0L2 whole entry): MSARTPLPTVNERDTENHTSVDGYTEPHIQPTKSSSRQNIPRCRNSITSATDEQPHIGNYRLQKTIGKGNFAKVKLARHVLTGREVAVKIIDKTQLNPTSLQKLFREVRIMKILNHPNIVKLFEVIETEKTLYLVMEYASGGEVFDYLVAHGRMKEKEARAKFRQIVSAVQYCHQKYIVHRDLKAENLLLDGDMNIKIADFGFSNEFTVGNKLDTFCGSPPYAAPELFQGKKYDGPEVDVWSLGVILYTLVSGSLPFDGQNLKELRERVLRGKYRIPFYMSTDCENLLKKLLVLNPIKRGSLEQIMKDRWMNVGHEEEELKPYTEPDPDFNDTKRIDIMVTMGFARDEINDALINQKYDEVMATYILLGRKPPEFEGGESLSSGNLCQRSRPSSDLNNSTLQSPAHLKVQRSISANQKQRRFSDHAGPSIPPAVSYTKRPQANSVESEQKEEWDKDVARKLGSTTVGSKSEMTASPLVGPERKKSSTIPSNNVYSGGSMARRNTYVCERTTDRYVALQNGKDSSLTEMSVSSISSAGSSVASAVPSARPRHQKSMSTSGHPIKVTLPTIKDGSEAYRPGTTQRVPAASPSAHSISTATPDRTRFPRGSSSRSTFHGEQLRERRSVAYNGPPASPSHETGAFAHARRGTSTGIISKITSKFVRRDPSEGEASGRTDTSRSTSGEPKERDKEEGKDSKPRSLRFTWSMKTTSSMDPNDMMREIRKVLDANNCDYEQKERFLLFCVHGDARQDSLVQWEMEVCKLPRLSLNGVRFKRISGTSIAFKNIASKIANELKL
T3 sequence (P11362 22-822): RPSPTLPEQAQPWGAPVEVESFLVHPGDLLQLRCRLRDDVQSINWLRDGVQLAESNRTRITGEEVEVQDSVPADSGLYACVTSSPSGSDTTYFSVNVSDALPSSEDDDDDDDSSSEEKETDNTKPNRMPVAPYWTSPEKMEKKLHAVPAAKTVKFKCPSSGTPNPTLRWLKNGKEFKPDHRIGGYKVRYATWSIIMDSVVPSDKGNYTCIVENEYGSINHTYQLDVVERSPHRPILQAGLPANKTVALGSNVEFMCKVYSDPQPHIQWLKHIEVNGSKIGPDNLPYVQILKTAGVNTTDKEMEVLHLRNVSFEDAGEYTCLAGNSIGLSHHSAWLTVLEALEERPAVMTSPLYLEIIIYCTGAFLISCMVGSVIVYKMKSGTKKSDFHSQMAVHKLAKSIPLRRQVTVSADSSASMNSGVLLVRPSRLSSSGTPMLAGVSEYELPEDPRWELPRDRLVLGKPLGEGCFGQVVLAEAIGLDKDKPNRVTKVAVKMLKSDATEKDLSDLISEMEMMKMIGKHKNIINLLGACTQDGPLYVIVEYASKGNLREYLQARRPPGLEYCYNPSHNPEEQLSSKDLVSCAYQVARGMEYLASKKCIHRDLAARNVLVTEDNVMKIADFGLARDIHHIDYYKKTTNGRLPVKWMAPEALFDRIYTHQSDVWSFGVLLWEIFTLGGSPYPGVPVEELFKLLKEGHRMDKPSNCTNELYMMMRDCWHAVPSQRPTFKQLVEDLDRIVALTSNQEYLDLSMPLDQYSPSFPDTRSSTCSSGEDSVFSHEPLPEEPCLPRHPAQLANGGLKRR
T7 sequence (Q08345 19-913): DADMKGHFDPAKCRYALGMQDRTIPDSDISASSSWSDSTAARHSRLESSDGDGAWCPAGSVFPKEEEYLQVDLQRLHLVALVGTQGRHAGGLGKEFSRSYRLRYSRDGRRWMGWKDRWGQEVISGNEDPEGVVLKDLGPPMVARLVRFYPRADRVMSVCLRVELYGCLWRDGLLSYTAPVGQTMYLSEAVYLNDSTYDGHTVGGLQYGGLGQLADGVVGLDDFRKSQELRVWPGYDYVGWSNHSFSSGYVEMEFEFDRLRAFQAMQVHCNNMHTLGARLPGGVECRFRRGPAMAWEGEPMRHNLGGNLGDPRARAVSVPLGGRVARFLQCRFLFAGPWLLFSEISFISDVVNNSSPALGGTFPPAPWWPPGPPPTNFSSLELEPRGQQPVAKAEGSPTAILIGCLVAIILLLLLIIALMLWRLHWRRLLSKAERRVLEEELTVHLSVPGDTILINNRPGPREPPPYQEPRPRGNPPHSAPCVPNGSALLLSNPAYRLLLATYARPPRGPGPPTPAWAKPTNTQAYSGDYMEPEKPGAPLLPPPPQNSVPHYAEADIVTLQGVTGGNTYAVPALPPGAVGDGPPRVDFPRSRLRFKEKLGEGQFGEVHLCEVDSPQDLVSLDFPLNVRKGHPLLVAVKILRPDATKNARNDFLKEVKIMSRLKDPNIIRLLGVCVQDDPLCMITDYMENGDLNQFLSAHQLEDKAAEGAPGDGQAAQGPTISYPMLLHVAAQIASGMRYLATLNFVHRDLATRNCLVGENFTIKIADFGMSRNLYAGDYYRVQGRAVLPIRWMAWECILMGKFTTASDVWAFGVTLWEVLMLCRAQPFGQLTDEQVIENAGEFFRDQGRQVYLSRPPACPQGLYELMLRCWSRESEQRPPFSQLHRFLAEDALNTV
T11 sequence (Q9P289 whole entry): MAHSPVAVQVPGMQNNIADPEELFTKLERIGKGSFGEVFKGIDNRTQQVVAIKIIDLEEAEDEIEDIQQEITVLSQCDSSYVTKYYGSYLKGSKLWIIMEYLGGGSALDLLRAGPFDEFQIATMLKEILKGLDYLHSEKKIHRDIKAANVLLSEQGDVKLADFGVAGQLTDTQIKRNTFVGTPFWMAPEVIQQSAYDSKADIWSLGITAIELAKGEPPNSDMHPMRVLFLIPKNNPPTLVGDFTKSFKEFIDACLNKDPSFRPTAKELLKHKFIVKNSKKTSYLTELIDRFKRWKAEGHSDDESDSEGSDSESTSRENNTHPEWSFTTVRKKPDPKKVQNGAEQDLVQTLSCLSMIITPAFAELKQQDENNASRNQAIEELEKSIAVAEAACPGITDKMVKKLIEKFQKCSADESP
T4 sequence (P14616 27-1297): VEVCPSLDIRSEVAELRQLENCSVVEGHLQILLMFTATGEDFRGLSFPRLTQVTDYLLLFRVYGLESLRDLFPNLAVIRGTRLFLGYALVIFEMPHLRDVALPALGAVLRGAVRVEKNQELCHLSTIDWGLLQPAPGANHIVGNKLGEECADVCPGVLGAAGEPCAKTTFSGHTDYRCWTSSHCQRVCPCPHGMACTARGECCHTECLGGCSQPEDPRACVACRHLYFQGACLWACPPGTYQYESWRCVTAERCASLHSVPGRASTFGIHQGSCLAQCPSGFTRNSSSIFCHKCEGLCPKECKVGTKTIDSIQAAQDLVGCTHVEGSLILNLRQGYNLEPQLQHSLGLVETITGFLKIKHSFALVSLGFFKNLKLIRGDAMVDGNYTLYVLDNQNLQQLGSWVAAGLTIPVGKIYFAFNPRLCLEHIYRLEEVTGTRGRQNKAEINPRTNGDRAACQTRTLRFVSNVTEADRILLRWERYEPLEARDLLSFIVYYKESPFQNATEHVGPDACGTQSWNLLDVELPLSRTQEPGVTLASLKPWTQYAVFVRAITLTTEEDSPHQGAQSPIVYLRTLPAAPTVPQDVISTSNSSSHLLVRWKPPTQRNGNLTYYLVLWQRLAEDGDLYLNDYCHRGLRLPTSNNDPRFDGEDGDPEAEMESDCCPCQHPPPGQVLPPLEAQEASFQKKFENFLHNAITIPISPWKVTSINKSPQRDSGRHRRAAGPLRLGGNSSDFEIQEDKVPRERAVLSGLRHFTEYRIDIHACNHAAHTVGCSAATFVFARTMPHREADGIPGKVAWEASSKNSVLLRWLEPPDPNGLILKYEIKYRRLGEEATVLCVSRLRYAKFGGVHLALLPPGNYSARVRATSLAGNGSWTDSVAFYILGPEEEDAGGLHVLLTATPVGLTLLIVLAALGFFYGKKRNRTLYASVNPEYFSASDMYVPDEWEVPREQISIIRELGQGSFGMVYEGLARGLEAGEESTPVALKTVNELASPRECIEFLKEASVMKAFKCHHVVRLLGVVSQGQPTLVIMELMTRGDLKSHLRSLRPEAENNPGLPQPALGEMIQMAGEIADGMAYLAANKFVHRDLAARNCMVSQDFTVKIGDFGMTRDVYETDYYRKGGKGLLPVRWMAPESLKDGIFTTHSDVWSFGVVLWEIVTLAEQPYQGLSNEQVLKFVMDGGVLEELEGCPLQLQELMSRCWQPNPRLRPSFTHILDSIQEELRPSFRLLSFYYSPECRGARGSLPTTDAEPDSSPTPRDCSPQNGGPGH

Structure (SMILES) | remaining binding at 1 µM (panel of 468 kinases [1]) | remaining binding at 1 µM (panel of 468 kinases [2]) | remaining binding at 1 µM (panel of 468 kinases [3]) | remaining binding at 1 µM (panel of 468 kinases [4]) | remaining binding at 1 µM (panel of 468 kinases [5]) | remaining binding at 1 µM (panel of 468 kinases [6]) | remaining binding at 1 µM (panel of 468 kinases [7]) | remaining binding at 1 µM (panel of 468 kinases [8]; RSK3(Kin.Dom.1-N-terminal)) | remaining binding at 1 µM (panel of 468 kinases [8]; RSK3(Kin.Dom.2-C-terminal)) | remaining binding at 1 µM (panel of 468 kinases [9]) | remaining binding at 1 µM (panel of 468 kinases [10]) | remaining binding at 1 µM (panel of 468 kinases [11]) | remaining binding at 1 µM (panel of 468 kinases [12])
CNc1nc(Nc2ccc(S(=O)(=O)N3CCC(N4CCOCC4)CC3)cc2OC)nc2[nH]cc(Cl)c12 [Compound 12, 5-chloro-N2-(2-methoxy-4-((4-morpholinopiperidin-1-yl)sulfonyl)phenyl)-N4-methyl-7H-pyrrolo[2,3-d]pyrimidine-2,4-diamine] | 22% | 98% | 89% | 85% | 100% | 91% | 100% | 100% | 70% | 100% | 100% | 80% | 93%
CNc1nc(Nc2ccc(C(=O)N3CCC(N4CCOCC4)CC3)c3c2OCO3)nc2[nH]cc(Cl)c12 [Compound 75, (7-((5-chloro-4-(methylamino)-7H-pyrrolo[2,3-d]pyrimidin-2-yl)amino)benzo[d][1,3]dioxol-4-yl)(4-morpholinopiperidin-1-yl)methanone] | 9.6% | 21% | 94% | 88% | 41% | 54% | 100% | 100% | 57% | 100% | 100% | 51% | 68%
CNc1nc(Nc2ccc(P3(=O)CCN(C4CCOCC4)CC3)cc2OC)nc2[nH]cc(Cl)c12 [Compound 77, 4-(4-((5-chloro-4-(methylamino)-7H-pyrrolo[2,3-d]pyrimidin-2-yl)amino)-3-methoxyphenyl)-1-(tetrahydro-2H-pyran-4-yl)-1,4-azaphosphinane 4-oxide] | 15% | 72% | 100% | 62% | 95% | 91% | 100% | 100% | 20% | 100% | 96% | 76% | 100%
